# Measured values as given in patent US7763580B2, “Methods for treating conditions associated with the accumulation of excess extracellular matrix” (University of Utah Research Foundation, priority 1999, dated 2010).
# B1: HrRenin: Human recombinant renin (Hoffman-La Roche) (protein, UniProt P00797 67-406, looked up)
# Renin: LTLGNTTSSVILTNYMDTQYYGEIGIGTPPQTFKVVFDTGSSNVWVPSSKCSRLYTACVYHKLFDASDSSSYKHNGTELTLRYSTGTVSGFLSQDIITVGGITVTQMFGEVTEMPALPFMLAEFDGVVGMGFIEQAIGRVTPIFDNIISQGVLKEDVFSFYYNRDSENSQSLGGQIVLGGSDPQHYEGNFHYINLIKTGVWQIQMKGVSVGSSTLLCEDGCLALVDTGASYISGSTSSIEKLMEALGAKKRLFDYVVKCNEGPTLPDISFHLGGKEYTLTSADYVFQESYSSKKLCTLAIHAMDIPPPTGPTWALGATFIRKFYTEFDRRNNRIGFALAR
# How the values were obtained:
# anti-Thy 1 model = details: monotherapy, anti-Thy 1 model (Peters et al.); L-arginine 1% in drinking water; cited from earlier work
# [1] = tested on: Normal fetal human mesangial cells; assay: Renin-induced TGFβ production by fetal human mesangial cells (ELISA); assay type: cell-based; details: for renin-induced increase in TGFβ production: 10^−5 M inhibitor added at zero time with 10^−7 M human recombinant renin, FIG. 3
# Experimental: Normal fetal human mesangial cells (Clonetics Corp., Clonetics, Walkersville, Md.) passaged 5 to 8 times, were plated (3,000 cell/cm^2) in 12 well plates in 2 ml of medium (Mesangial Basal Medium (Clonetics Corp.) containing 5% FCS, 10 μg/ml penicillin and 100 μg/ml streptomycin) and allowed to grow to confluence for 48 hours at 37EC, 5% CO2. Cultures were washed three times using sterile phosphate buffered saline at room temperature and then 2 ml/well of serum free MBM medium to induce quiescence. After 48 hours, the serum-free medium was removed and 2 ml/well of fresh serum-free medium was added. Human recombinant renin (Hoffman-La Roche Ltd., Basel, Switzerland) in concentrations from 10^−6 to 10^−12 M was added to each well. A blank and 5 ng/ml of TGFβ (R & D Systems, Minneapolis, Minn.) were used as controls. Cells and supernatants were harvested by centrifugation after 24 hrs of culture and frozen at ^−70EC until analysis. The total production and release of TGFβ into the culture supernatant was measured using an ELISA kit (R & D Systems). Induction of PAI-1 and fibronectin in the supernatant are also measured using anti-PAI-1 and anti-fibronectin antibodies in an ELISA to provide further confirmation of the inhibition of TGFβ. TGFβ, fibronectin and PAI-1 mRNA are measured using semi-quantitative RT-PCR.
# Renin inhibitor Ro42-5892 (Hoffman-LaRoche, Basel, Switzerland), Losartan™ (Merck Pharmaceuticals, West Point, Pa.), Enalapril™ (Sigma Chemical Co., St. Louis, Mo., Prod. No. E6888), or TGFβ1 neutralizing antibody (R & D Systems) were added in the amounts indicated below to separate wells in triplicate to block the renin cascade at different sites after stimulation by renin: • 10^−5 M Renin Inhibitor R042-5892 (Hoffman-LaRoche) • 30 ng/ml Anti-TGFβ1 antibody (R & D Systems, #AB 101 NA) • 30 ng/ml Chicken IgG (control for anti-TGFβ1 antibody, R & D Systems, # AB 101 C) • 10^−5 M Enalapril™ (Sigma Chemical Co., St. Louis, Mo.) • 10^−5 M Losartan™ (Merck Pharmaceuticals, West Point, Pa.)
# (§1) These inhibitors were added at zero time with 10^−7 M human recombinant renin (Hoffman-LaRoche).
# [2] = tested on: adult human mesangial cells; assay: Renin-induced TGFβ and fibronectin production by adult human mesangial cells (ELISA); assay type: cell-based; details: for renin-induced increase in TGFβ production: 10^−5 M inhibitor added at zero time with 10^−7 M human recombinant renin, adult cells, FIG. 7
# Experimental: Primary cultures of adult human mesangial cells were grown from human nephrectomy tissues using standard methods. Cells were passaged 4-7 times and then plated (3,000 cell/cm^2) in 12 well plates in 2 ml of medium (Mesangial Basal Medium (Clonetics Corp.) containing 5% FCS, 10 μg/ml penicillin and 100 μg/ml streptomycin) and allowed to grow to 70% confluency for 48 hours at 37EC, 5% CO2. Cultures were washed three times using sterile phosphate buffered saline at room temperature and then 2 ml/well of serum free MBM medium to induce quiescence. After 48 hours, the serum-free medium was removed and 2 ml/well of fresh serum-free medium was added for 24 hours. Human recombinant renin (HrRenin, Hoffman-La Roche Ltd., Basel, Switzerland) in concentrations from 10^−6 to 10^−12 M was added to each well for 24 hours. A blank (no HrRenin) was used as a control. Cells and supernatants were harvested by centrifugation after 24 hrs of culture and frozen at ^−70EC until analysis.
# The total production and release of TGFβ into the culture supernatant was measured using an ELISA kit (R & D Systems). Induction of the matrix protein fibronectin (Fn) in the supernatant was measured using anti-fibronectin antibodies in an ELISA to provide further confirmation of induction of TGFβ. Renin-induced induction of TGFβ, fibronectin and PAI-1 mRNA were measured over time using semi-quantitative RT-PCR in a multiplex system where multiple cDNAs are amplified simultaneously according to Dostal et al., Anal. Biochem. 223:239-250 (1994), incorporated by reference herein Determinations were done in triplicate mesangial cell cultures.
# Renin inhibitor Ro42-5892 (Hoffman-LaRoche, Basel, Switzerland), Losartan™ (Merck Pharmaceuticals, West Point, Pa.), Enalapril™ (Sigma Chemical Co., St. Louis, Mo., Prod. No. E6888), or TGFβ1 neutralizing antibody (R & D Systems) were added in the amounts indicated below to separate wells in triplicate to block the renin cascade at different sites after stimulation by renin: • 10^−5 M Renin Inhibitor R042-5892 (Hoffman-LaRoche) • 10^−5 M Enalapril™ (Sigma Chemical Co., St. Louis, Mo.) • 10^−5 M Losartan™ (Merck Pharmaceuticals, West Point, Pa.) • Controls included neutralizing antibody to TGFβ (ATG) and control IgG (TgG)
# as §1
# anti-Thy-1 nephritis [3] = assay: Glomerular ECM staining after rtPA in anti-Thy-1 nephritis; assay type: in vivo, Sprague-Dawley rats
# Experimental: (§2) Six Sprague-Dawley rats with were injected with phosphate buffered saline (PBS, as a control) and 18 rats were injected with 300 ug of mouse monoclonal OX7 antibody produced in the laboratory using commercially obtained hybridoma cells (American Type Culture Collecton (Rockville, Md., USA; Peters et al., Kidney Internatl. 54:1570-1580 (1998)) on day 1 to induce anti-Thy-1 nephritis. Injection of the anti rat-thymocyte antibody intravenously causes binding to an epitope in rat glomerular mesangial cells call Thy 1.1. The complement-mediated mesangial cell lysis that follows initiates a cascade of tissue injury, followed by a repair process that involves induction of TGFβ-driven production and deposition of ECM components. […] These alterations favor decreased plasmin generation which decreases matrix turnover and enhances matrix accumulation. Plasmin is the key to mesangial cell matrix turnover (Baricos et al, Kidney Int. 47:1037-1047 (1995)).
# Three days after the initial injection, rtPA (Genentech, Inc., San Francisco, Calif.) in a formulation designed for rodent intravenous injection (GenBank E08757) or PBS was injected intravenously. Injections were repeated twice a day from day 3 to day 5. RtPA was injected i.v. at a dose of 1 mg/kg BW (n'6). Controls received saline (n'6). Glomerular staining for ECM matrix proteins (collagen type I and III, fibronection EDA+ and tenascin) and glomerular mRNA levels of TGFβ1, fibronectin and PAI-1 were evaluated at day 6. Localization of rtPA in nephritic glomeruli and the effect of rtPA on glomerular plasmin were investigated. Rats were sacrificed at day 6 and kidney tissues excised, fixed in formalin and frozen for histological analysis.
# Kidney tissue sections were stained for extracellular matrix using Periodic Acid Schiff (PAS) using standard procedures and were stained for specific relevant matrix proteins such as Collagen I, Collagen IV, Fibronectin EDA and tenascin using standard immunohistochemical staining procedures. Matrix proteins were scored by image analysis of 30 glomeruli per rat.
# anti-Thy-1 nephritis [4] = assay: Glomerular mRNA levels after rtPA in anti-Thy-1 nephritis; assay type: in vivo, Sprague-Dawley rats; details: rtPA treated, day 6, FIG. 10
# Experimental: as §2
# Three days after the initial injection, rtPA (Genentech, Inc., San Francisco, Calif.) in a formulation designed for rodent intravenous injection (GenBank E08757) or PBS was injected intravenously. Injections were repeated twice a day from day 3 to day 5. […] Glomerular staining for ECM matrix proteins (collagen type I and III, fibronection EDA+ and tenascin) and glomerular mRNA levels of TGFβ1, fibronectin and PAI-1 were evaluated at day 6. […]
# nephritic glomeruli = assay: Plasmin generation by isolated nephritic glomeruli after rtPA injection; assay type: in vivo, rats; details: rtPA injected 10, 20 and 30 minutes before sacrifice; vs disease control
# Experimental: rtPA was injected into nephritic rats 10, 20 and 30 minutes before sacrifice. At sacrifice, glomeruli were isolated and placed in culture with a chromogenic substrate for tPA.
# [5] = 10^−6M HrRenin, 24 hours, peak of dose response, p<0.05
molecule,measurement,setting,value
N=C(N)NCCC[C@H](N)C(=O)O [L-arginine],reduction of markers of fibrotic disease,anti-Thy 1 model,about 50%
CCCCc1nc(Cl)c(CO)n1Cc1ccc(-c2ccccc2-c2nn[nH]n2)cc1 [Losartan],renin-induced increase in TGFβ production,[1],does not reduce the renin-induced increase in TGFβ production
same,renin-induced increase in TGFβ production,[2],does not reduce the renin-induced increase in TGFβ production
same,reduction of markers of fibrotic disease,anti-Thy 1 model,about 50%
CC(C)(C)S(=O)(=O)C[C@@H](Cc1ccccc1)C(=O)N[C@@H](Cc1c[nH]cn1)C(=O)N[C@@H](CC1CCCCC1)[C@@H](O)[C@@H](O)C1CC1 [Ro 42-5892],renin-induced increase in TGFβ production,[1],does not reduce the renin-induced increase in TGFβ production
same,renin-induced increase in TGFβ production,[2],does not reduce the renin-induced increase in TGFβ production
rtPA: recombinant tissue type plasminogen activator (Genentech),"percentage of the glomerular area with positive staining, fibronectin EDA+","anti-Thy-1 nephritis [3]; rtPA 1 mg/kg BW i.v. twice a day day 3 to 5, day 6, disease control 19±2, p<0.01",14±1%
same,"percentage of the glomerular area with positive staining, type IV collagen","anti-Thy-1 nephritis [3]; rtPA 1 mg/kg BW i.v. twice a day day 3 to 5, day 6, disease control 27±2, p<0.01",23±1%
same,"percentage of the glomerular area with positive staining, type I collagen","anti-Thy-1 nephritis [3]; rtPA 1 mg/kg BW i.v. twice a day day 3 to 5, day 6, disease control 33±1, p<0.001",21±3%
same,"percentage of the glomerular area with positive staining, laminin","anti-Thy-1 nephritis [3]; rtPA 1 mg/kg BW i.v. twice a day day 3 to 5, day 6, disease control 35±2, p<0.001",25±2%
same,matrix accumulated in glomeruli,"anti-Thy-1 nephritis [3]; tPA vs control, FIG. 8",overall decrease in matrix accumulated
same,"Glomerular levels of TGFβ1, FN and PAI-1 mRNA",anti-Thy-1 nephritis [4],unchanged
same,Plasmin generation by nephritic glomeruli,nephritic glomeruli,significantly elevated
B1,TGFβ production by cultured human mesangial cells,"[1]; renin 10^−6 to 10^−12 M, 24 hrs, FIG. 2",increases the TGFβ production by cultured human mesangial cells in a dose-dependent manner
same,increase in Fn production,[2]; [5],1.4 fold
same,increase in TGFβ production,[2]; [5],2 fold
same,"TGFβ and Fn production, time course","[2]; 10^−7M HrRenin, 24 and 48 hours, p<0.03",significant increases in TGFβ and Fn production at 24 and 48 hours
